From US11584737B2, “Heterocyclic compound” (TAKEDA PHARMACEUTICAL COMPANY LIMITED, priority 2018, dated 2023)

Assays:
CDK12/CycK complex = CDK12/CycK complex (Homo sapiens, UniProt Q9NYV4); experiment: Measurement of CDK12 inhibitory activity by binding assay (BODIPY-FL labeled AT-7519 high concentration conditions, 1320 nM); conditions: inhibitory rate against CDK12 at 1 μM test compound, 1320 nM BODIPY-FL-labeled AT-7519, 8 nM CDK12/CycK
Protocol: (4) Measurement of CDK12 Inhibitory Activity by Binding Assay (BODIPY-FL Labeled AT-7519 High Concentration Conditions)
His-tagged CDK12/CycK complex was blended with a binding assay buffer supplemented with BODIPY-FL labeled AT-7519, terbium-labeled streptavidin and biotin-labeled anti-histidine antibody. This solution was added to an assay plate containing a test compound dispensed therein, and the mixture was left standing for 120 min at room temperature. The final concentration of CDK12/CycK complex, BODIPY-FL-labeled AT-7519, terbium-labeled streptavidin and biotin-labeled anti-histidine antibody was set to 8 nM, 1320 nM, 0.2 nM, and 0.4 nM, respectively. The fluorescence intensity derived from terbium and BODIPY-FL was measured using Envision. The signal value of each well was determined using the TR-FRET ratio calculated by the following formula. TR-FRET ratio=(fluorescence value of BODIPY-FL)÷(fluorescence value of terbium)
The inhibitory rate (%) of the test compound against CDK12 was calculated by the following formula. Inhibitory rate (%)=(1−(TR-FRET ratio of test compound−blank)÷(control−blank))×100
The TR-FRET ratio of the CDK12 enzyme reaction mixture under compound non-addition conditions is indicated as control, and the TR-FRET ratio under 30 μM AT-7519 addition conditions is indicated as blank.
The inhibitory rate of the test compound against CDK12 at 1 μM is shown below.

A2780 cells = experiment: In vitro proliferation suppression test (CellTiter-Glo); format: cell-based, human; conditions: A2780 cell proliferation inhibitory rate at 1 μM test compound, three days; for inhibition at 1 µM: Homo sapiens, 72 h
Protocol: Experimental Example 4: In Vitro Proliferation Suppression Test
The proliferation suppressive activity of compound in A2780 cells was evaluated by the following method.
A2780 cells were seeded in a 384-well white plate at a cell density of 1,000 cells/40 μL/well or a 96-well white plate at a cell density of 1,000 cells/90 μL/well using an assay medium (RPMI1640 medium containing 10% fetal bovine serum (FUJIFILM Wako Pure Chemical Corporation)) and incubated at 37° C. in 5% CO2.
The next day, a test compound dissolved in dimethyl sulfoxide (DMSO) was diluted with an assay medium, the obtained compound solution was added by 40 μL/well or 10 μL/well to each well of the plate containing A2780 cells and the mixture was incubated (test compound addition group). In addition, a similar reaction was performed without adding the test compound (test compound non-addition group).
Three days later, 80 μL or 100 μL of CellTiter-Glo reagent (Promega) was added, and the mixture was stirred for 10 min. Thereafter, the luminescence of each well was measured by ARVO-MX multilabel counter (Perkin Elmer Inc.).
The proliferation inhibitory rate (%) of each test compound against A2780 cells was calculated by the following calculation formula. Proliferation inhibitory rate (%)=(1−luminescence of test compound addition group÷luminescence of test compound non-addition group)×100
The A2780 cell proliferation inhibitory rate (%) of 1 μM test compound is shown below.

Sequence of CDK12/CycK complex (Q9NYV4 whole entry, species assumed): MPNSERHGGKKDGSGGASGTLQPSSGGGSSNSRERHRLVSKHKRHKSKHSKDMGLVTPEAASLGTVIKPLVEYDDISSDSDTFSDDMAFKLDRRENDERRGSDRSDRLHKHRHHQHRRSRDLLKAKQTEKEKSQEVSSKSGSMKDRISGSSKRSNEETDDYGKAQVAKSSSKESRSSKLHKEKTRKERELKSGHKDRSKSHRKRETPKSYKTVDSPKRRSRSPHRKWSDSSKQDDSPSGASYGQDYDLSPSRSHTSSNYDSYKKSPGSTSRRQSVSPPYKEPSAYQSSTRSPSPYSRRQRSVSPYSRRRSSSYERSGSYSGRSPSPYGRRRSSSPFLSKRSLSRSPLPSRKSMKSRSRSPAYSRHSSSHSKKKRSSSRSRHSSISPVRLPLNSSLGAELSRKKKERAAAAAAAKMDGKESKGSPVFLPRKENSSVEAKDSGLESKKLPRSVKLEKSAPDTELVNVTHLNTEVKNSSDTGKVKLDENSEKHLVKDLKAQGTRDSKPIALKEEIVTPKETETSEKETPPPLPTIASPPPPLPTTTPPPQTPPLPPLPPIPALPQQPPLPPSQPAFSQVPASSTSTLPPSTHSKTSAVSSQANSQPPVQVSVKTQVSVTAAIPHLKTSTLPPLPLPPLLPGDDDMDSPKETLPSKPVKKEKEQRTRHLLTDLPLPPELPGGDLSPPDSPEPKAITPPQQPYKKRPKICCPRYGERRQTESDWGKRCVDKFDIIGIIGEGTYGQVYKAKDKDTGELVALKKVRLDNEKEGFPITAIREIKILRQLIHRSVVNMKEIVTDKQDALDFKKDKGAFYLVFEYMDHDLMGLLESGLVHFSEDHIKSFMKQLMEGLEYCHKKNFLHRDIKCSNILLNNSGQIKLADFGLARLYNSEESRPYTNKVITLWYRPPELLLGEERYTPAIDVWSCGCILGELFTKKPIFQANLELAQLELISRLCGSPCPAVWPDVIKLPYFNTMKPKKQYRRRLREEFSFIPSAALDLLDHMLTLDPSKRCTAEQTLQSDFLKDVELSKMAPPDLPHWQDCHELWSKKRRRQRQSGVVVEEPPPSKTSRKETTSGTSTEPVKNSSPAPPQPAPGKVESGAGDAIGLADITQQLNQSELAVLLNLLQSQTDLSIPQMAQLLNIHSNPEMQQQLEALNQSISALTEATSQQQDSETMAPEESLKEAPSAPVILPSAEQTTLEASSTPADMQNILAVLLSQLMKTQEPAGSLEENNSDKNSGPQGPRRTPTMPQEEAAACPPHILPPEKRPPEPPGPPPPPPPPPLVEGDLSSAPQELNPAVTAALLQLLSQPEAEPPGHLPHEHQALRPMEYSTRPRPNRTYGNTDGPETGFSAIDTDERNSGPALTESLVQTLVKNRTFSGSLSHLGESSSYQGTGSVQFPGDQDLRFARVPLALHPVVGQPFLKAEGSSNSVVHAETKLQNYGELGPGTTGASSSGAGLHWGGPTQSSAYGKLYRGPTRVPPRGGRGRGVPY
Sequence of CDK12/CycK complex (O75909 whole entry partner, species assumed): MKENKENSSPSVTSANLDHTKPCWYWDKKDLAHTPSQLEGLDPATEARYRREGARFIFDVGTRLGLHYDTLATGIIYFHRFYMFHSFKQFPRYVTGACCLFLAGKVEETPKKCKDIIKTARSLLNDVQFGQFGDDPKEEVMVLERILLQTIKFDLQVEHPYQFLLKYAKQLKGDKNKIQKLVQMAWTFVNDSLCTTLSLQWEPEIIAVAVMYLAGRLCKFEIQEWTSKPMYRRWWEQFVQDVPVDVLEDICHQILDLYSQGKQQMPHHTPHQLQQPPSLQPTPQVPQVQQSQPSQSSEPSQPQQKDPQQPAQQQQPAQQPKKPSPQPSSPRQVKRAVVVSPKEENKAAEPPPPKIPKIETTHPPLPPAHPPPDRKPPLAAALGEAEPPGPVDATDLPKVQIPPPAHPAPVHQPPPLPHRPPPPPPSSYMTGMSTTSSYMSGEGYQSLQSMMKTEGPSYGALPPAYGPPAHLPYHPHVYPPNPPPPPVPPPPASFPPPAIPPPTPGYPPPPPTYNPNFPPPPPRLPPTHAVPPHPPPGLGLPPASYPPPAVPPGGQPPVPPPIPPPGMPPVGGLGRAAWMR

Compound | inhibition at 1 µM (CDK12/CycK complex) | inhibition at 1 µM (A2780 cells) | 1 μM inhibitory rate (%) (CDK12/CycK complex) | 1 μM inhibitory rate (%) (A2780 cells)
COc1ncc(-c2cnc(N(C(=O)OCCN(C)C)[C@H]3CC[C@H](Nc4ncc(C(F)(F)F)c(-c5cncc(S(C)(=O)=O)c5)n4)CC3)cn2)cn1 [Example 767, 2-(dimethylamino)ethyl (trans-4-((4-(5-(methanesulfonyl)pyridin-3-yl)-5-(trifluoromethyl)pyrimidin-2-yl)amino)cyclohexyl) (5-(2-methoxypyrimidin-5-yl)pyrazin-2-yl)carbamate] | 102% | 99% |  | 
CCCC(=O)N(c1cnc(-c2cnc(OC)nc2)cn1)[C@H]1CC[C@H](Nc2ncc(C(F)(F)F)c(-c3cncc(S(C)(=O)=O)c3)n2)CC1 [Example 798, N-(trans-4-((4-(5-(methanesulfonyl)pyridin-3-yl)-5-(trifluoromethyl)pyrimidin-2-yl)amino)cyclohexyl)-N-(5-(2-methoxypyrimidin-5-yl)pyrazin-2-yl)butanamide] | 92% | 99% |  | 
CCNC(=O)N(c1cnc(-c2cnc(OC)nc2)cn1)[C@H]1CC[C@H](Nc2ncc(C(F)(F)F)c(-c3cncc(S(C)(=O)=O)c3)n2)CC1 [Example 799, 3-ethyl-1-(trans-4-((4-(5-(methanesulfonyl)pyridin-3-yl)-5-(trifluoromethyl)pyrimidin-2-yl)amino)cyclohexyl)-1-(5-(2-methoxypyrimidin-5-yl)pyrazin-2-yl)urea] | 96% | 99% |  | 
COc1ncc(-c2cnc(N(C(=O)NCC(C)(C)O)[C@H]3CC[C@H](Nc4ncc(C(F)(F)F)c(-c5ccn(C(F)F)n5)n4)CC3)cn2)cn1 [Example 804, 1-(trans-4-((4-(1-(difluoromethyl)-1H-pyrazol-3-yl)-5-(trifluoromethyl)pyrimidin-2-yl)amino)cyclohexyl)-3-(2-hydroxy-2-methylpropyl)-1-(5-(2-methoxypyrimidin-5-yl)pyrazin-2-yl)urea] | 94% | 96% |  | 
Cn1cc(-c2cnc(N(C(=O)OCC(F)F)[C@H]3CC[C@H](Nc4ncc(C(F)(F)F)c(-c5cncc(S(C)(=O)=O)c5)n4)CC3)cn2)cn1 [Example 820, 2,2-difluoroethyl (trans-4-((4-(5-(methanesulfonyl)pyridin-3-yl)-5-(trifluoromethyl)pyrimidin-2-yl)amino)cyclohexyl) (5-(1-methyl-1H-pyrazol-4-yl)pyrazin-2-yl)carbamate] | 99% | 99% |  | 
COc1ncc(-c2cnc(N(C(=O)CCC(F)F)[C@H]3CC[C@H](Nc4ncc(C(F)(F)F)c(-c5cncc(S(C)(=O)=O)c5)n4)CC3)cn2)cn1 [Example 826, 4,4-difluoro-N-(trans-4-((4-(5-(methanesulfonyl)pyridin-3-yl)-5-(trifluoromethyl)pyrimidin-2-yl)amino)cyclohexyl)-N-(5-(2-methoxypyrimidin-5-yl)pyrazin-2-yl)butanamide] | 106% | 98% |  | 
CCOCC(=O)N(c1cnc(-c2cnc(OC)nc2)cn1)[C@H]1CC[C@H](Nc2ncc(C(F)(F)F)c(-c3cncc(S(C)(=O)=O)c3)n2)CC1 [Example 827, 2-ethoxy-N-(trans-4-((4-(5-(methanesulfonyl)pyridin-3-yl)-5-(trifluoromethyl)pyrimidin-2-yl)amino)cyclohexyl)-N-(5-(2-methoxypyrimidin-5-yl)pyrazin-2-yl)acetamide] | 109% | 99% |  | 
CCOCC(=O)N(c1cnc(-c2cnn(C)c2)cn1)[C@H]1CC[C@H](Nc2ncc(C(F)(F)F)c(-c3cncc(S(C)(=O)=O)c3)n2)CC1 [Example 831, 2-ethoxy-N-(trans-4-((4-(5-(methanesulfonyl)pyridin-3-yl)-5-(trifluoromethyl)pyrimidin-2-yl)amino)cyclohexyl)-N-(5-(1-methyl-1H-pyrazol-4-yl)pyrazin-2-yl)acetamide] | 107% | 99% |  | 
COc1ncc(-c2cnc(N(C(=O)OCC(C)(C)O)[C@H]3CC[C@H](Nc4ncc(C(F)(F)F)c(-c5cncc(S(C)(=O)=O)c5)n4)CC3)cn2)cn1 [Example 836, 2-hydroxy-2-methylpropyl (trans-4-((4-(5-(methanesulfonyl)pyridin-3-yl)-5-(trifluoromethyl)pyrimidin-2-yl)amino)cyclohexyl) (5-(2-methoxypyrimidin-5-yl)pyrazin-2-yl)carbamate] | 106% | 99% |  | 
Cn1cc(-c2cnc(N(C(=O)OCC(C)(C)O)[C@H]3CC[C@H](Nc4ncc(C(F)(F)F)c(-c5cncc(S(C)(=O)=O)c5)n4)CC3)cn2)cn1 [Example 838, 2-hydroxy-2-methylpropyl (trans-4-((4-(5-(methanesulfonyl)pyridin-3-yl)-5-(trifluoromethyl)pyrimidin-2-yl)amino)cyclohexyl) (5-(1-methyl-1H-pyrazol-4-yl)pyrazin-2-yl)carbamate] | 103% | 98% |  | 
COc1ncc(-c2cnc(N(C(=O)OCC(C)(C)O)[C@H]3CC[C@H](Nc4ncc(C(F)(F)F)c(-c5n[nH]cc5Cl)n4)CC3)cn2)cn1 [Example 841, 2-hydroxy-2-methylpropyl (trans-4-((4-(4-chloro-1H-pyrazol-3-yl)-5-(trifluoromethyl)pyrimidin-2-yl)amino)cyclohexyl) (5-(2-methoxypyrimidin-5-yl)pyrazin-2-yl)carbamate] | 79% | 99% |  | 
COc1ncc(-c2ccc(N(C(=O)OCCN(C)C)[C@H]3CC[C@H](Nc4ncc(C(F)(F)F)c(-c5cncc(S(C)(=O)=O)c5)n4)CC3)nc2)cn1 [Example 848, 2-(dimethylamino)ethyl (trans-4-((4-(5-(methanesulfonyl)pyridin-3-yl)-5-(trifluoromethyl)pyrimidin-2-yl)amino)cyclohexyl) (5-(2-methoxypyrimidin-5-yl)pyridin-2-yl)carbamate] |  |  | 108% | 99%
COc1ncc(-c2ccc(N(C(=O)NCC(C)(C)O)[C@H]3CC[C@H](Nc4ncc(C(F)(F)F)c(-c5ccn(C(F)F)n5)n4)CC3)nc2)cn1 [Example 849, 1-(trans-4-((4-(1-(difluoromethyl)-1H-pyrazol-3-yl)-5-(trifluoromethyl)pyrimidin-2-yl)amino)cyclohexyl)-3-(2-hydroxy-2-methylpropyl)-1-(5-(2-methoxypyrimidin-5-yl)pyridin-2-yl)urea] | 110% | 97% |  | 
CCCC(=O)N(c1ccc(-c2cnc(OC)nc2)cn1)[C@H]1CC[C@H](Nc2ncc(C(F)(F)F)c(-c3cncc(S(C)(=O)=O)c3)n2)CC1 [Example 858, N-(trans-4-((4-(5-(methanesulfonyl)pyridin-3-yl)-5-(trifluoromethyl)pyrimidin-2-yl)amino)cyclohexyl)-N-(5-(2-methoxypyrimidin-5-yl)pyridin-2-yl)butanamide] | 109% | 99% |  | 
